According to patent US20260103479A1, “PRODRUGS OF OPICAPONE” (BIAL- PORTELA & CA, S.A., priority 2022, published 2026):
Values after ≈ are worked out from the molar mass of the structure shown. Structures can show the parent of a compound that is named as a salt.

Key:
physchem = conditions: water, thermodynamic from solid, Solubility in pure water
Experimental: (§1) The solubility studies were completed at room temperature. For the determination of the solubility increasing amounts of distilled water was added to 5 mg of the test sample until its complete dissolution of the product observed by naked eye.

[1] = Aqueous solubility in distilled (pure) water at room temperature; conditions: thermodynamic from solid
Experimental: as §1

| Compound | solubility (physchem) [µg/mL] | solubility [1] [µg/mL] |
| --- | --- | --- |
| Cc1c(Cl)c(C)[n+]([O-])c(Cl)c1-c1noc(-c2cc(OP(=O)(O)O)c(O)c([N+](=O)[O-])c2)n1 [Compound 3, 2,5-dichloro-3-(5-(4-hydroxy-3-nitro-5-(phosphonooxy)phenyl)-1,2,4-oxadiazol-3-yl)-4,6-dimethylpyridine 1-oxide, triammonia salt] | > 500 | – |
| Cc1c(Cl)c(C)[n+]([O-])c(Cl)c1-c1noc(-c2cc(O)c(O)c([N+](=O)[O-])c2)n1 [Opicapone, 2,5-dichloro-3-(5-(3,4-dihydroxy-5-nitrophenyl)-1,2,4-oxadiazol-3-yl)-4,6-dimethylpyridine 1-oxide] | – | 23 to 36 (≈ 55.7 to 87.1 µM) |
